Measurements: the NIST ThermoML archive (doi:10.1021/je0601309)
± gives the expanded uncertainty stated by the source.

Conditions: Liquid; for mass density: 298.15 K, 101.33 kPa

CCO [ethanol]
Conditions | mass density [kg/m3]
– | 785.23 ± 0.31

Ebulliometric method (Recirculating still)
Conditions | vapor or sublimation pressure [kPa]
329.7 K | 40 ± 0.42
336.11 K | 53.33 ± 0.46
341.28 K | 66.66 ± 0.56
345.65 K | 79.99 ± 0.65
349.45 K | 93.32 ± 0.7

CO [methanol]
Conditions | mass density [kg/m3]
– | 786.67 ± 0.31

Ebulliometric method (Recirculating still)
Conditions | vapor or sublimation pressure [kPa]
315.74 K | 40 ± 0.4
315.87 K | 40 ± 0.4
322.17 K | 53.33 ± 0.54
322.25 K | 53.33 ± 0.54
327.37 K | 66.66 ± 0.67
327.45 K | 66.66 ± 0.67
331.75 K | 79.99 ± 0.8
331.84 K | 79.99 ± 0.8
335.56 K | 93.32 ± 0.94
335.66 K | 93.32 ± 0.94

COC(=O)OC [dimethyl carbonate]
Conditions | mass density [kg/m3] | vapor or sublimation pressure [kPa]
– | 1063.38 ± 0.16 | –
336.68 K | – | 40 ± 0.35
344.38 K | – | 53.33 ± 0.39
350.66 K | – | 66.66 ± 0.46
356.01 K | – | 79.99 ± 0.54
360.68 K | – | 93.32 ± 0.57
